# Data taken from patent publication US7378404B2, “8β-hydrocarbyl-substituted estratrienes for use as selective estrogens” (priority 2000, dated 2008).
# Experiments:
# hERβ [1] = assay: Relative binding affinity (RBA) to hERβ, cited from Kuiper et al.; set-up: species or system human; settings: quotient of RBA hERβ / hERα
# Source text: In this case, it is assumed that ERβ predominates in the rat prostates over ERα, and ERα predominates in rat uteri over ERβ.
# [2] = target: T1, estrogen receptor of rat uteri (Rattus norvegicus, UniProt P06211); assay: Competitive binding with 3H-estradiol to estrogen receptor preparation of rat uterus cytosol; settings: for RBA Rat Uterus: Table 2
# T1 construct: The preparation of rat uterus cytosol as well as the receptor test with the ER-containing cytosol; from tissue; host or cells: rat uterus cytosol
# T1 sequence (P06211 1-600): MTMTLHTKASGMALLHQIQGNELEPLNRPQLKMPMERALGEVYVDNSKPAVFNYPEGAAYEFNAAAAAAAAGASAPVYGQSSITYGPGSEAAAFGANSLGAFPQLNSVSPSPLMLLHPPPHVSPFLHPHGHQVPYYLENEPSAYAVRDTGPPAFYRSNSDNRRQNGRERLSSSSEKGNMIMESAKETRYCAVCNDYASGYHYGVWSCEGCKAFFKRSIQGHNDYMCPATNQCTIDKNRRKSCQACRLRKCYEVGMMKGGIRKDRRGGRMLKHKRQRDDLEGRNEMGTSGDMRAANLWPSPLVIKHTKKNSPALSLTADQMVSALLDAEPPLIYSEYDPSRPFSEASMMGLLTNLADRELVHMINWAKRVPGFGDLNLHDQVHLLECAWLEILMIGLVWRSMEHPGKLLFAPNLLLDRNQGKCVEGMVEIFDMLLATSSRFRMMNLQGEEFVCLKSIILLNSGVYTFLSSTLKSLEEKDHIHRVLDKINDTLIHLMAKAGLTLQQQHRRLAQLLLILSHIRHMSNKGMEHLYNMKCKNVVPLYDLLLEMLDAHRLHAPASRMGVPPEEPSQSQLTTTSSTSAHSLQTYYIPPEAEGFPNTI
# [3] = system: estrogen receptor of rat prostates; assay: Competitive binding with 3H-estradiol to estrogen receptor preparation of rat prostate cytosol; settings: for Rat prost. ER (RBA): Table 1, estradiol = 100; for RBA Rat Prostate: Table 2; for binding affinity to estrogen receptor of rat prostates compared with estrogen receptor of rat uteri: rat prostate ER versus rat uterus ER
# hERβ [4] = settings: estradiol = 100; cited from earlier work
# [5] = system: 5HT2a-receptor and serotonin transporter; assay: Expression of 5HT2a-receptor and serotonin transporter in ERβ-rich brain areas after one-time administration in rats; assay type: in vivo; settings: rat brain
# Experimental: Compared to the effect on the serotonin receptor and transporter expression, the effect on the LH-secretion is measured. […] The density of serotonin receptors and transporters is determined in brain sections using radioactive ligands, and the corresponding mRNA is determined using in situ hybridization. The method is described in the literature: G. Fink & B. E. H. Sumner 1996 Nature 383: 306; B. E. H. Sumner et al. 1999 Molecular Brain Research, in press.
structure (smiles),measurement,setting,value
COc1ccc2c(c1)CC[C@]1(C)C2=CC[C@@]2(C)[C@H]1CC[C@@H]2O,melting point,,168 °C
"C[C@]12CC[C@H]3[C@@H](CC=C4C[C@@H](O)CC[C@@]43C)[C@@H]1CC[C@@H]2O [5-Androstenediol, reference compound]",ERβ/ERα,hERβ [1],3
same,Rat uterus ER (RBA),"[2]; Table 1, estradiol = 100",0.1
same,Rat prost. ER (RBA),[3],5
same,prost. ER/uterus ER,[3]; ratio of RBA rat prostate ER / rat uterus ER,50
same,hERβ RBA,hERβ [4],17
"C[C@]12CC[C@@H]3c4ccc(O)cc4CC[C@H]3[C@@H]1CC[C@H]2O [17α-Estradiol, reference compound]",Rat prost. ER (RBA),[3],1.3
"C=C[C@@]12CCc3cc(O)ccc3C1=CC[C@@]1(C)[C@H]2CC[C@@H]1O [A, 8β-Vinyl-estra-1,3,5(10),9(11)-tetraene-3,17β-diol]",RBA Rat Uterus,[2],1
same,RBA Rat Prostate,[3],83
same,binding affinity to estrogen receptor of rat prostates compared with estrogen receptor of rat uteri,[3],higher binding affinity
same,expression of the serotonin receptor and transporter,[5],increased expression
"C=C[C@@]12CCc3cc(O)ccc3[C@H]1CC[C@@]1(C)[C@H]2CC[C@@H]1O [B, 8β-vinyl-estra-1,3,5(10)-triene-3,17β-diol]",RBA Rat Uterus,[2],0.7
same,RBA Rat Prostate,[3],63
same,binding affinity to estrogen receptor of rat prostates compared with estrogen receptor of rat uteri,[3],higher binding affinity
same,expression of the serotonin receptor and transporter,[5],increased expression
"C[C@]12CC[C@@H]3c4ccc(O)cc4CC[C@@]3(C=C(F)F)[C@@H]1CC[C@@H]2O [C, 8β-(2,2-difluorovinyl)-estra-1,3,5(10)-triene-3,17β-diol]",RBA Rat Uterus,[2],0.9
same,RBA Rat Prostate,[3],5
same,binding affinity to estrogen receptor of rat prostates compared with estrogen receptor of rat uteri,[3],higher binding affinity
same,expression of the serotonin receptor and transporter,[5],increased expression
"C[C@@]12CCc3cc(O)ccc3[C@H]1CC[C@@]1(C)[C@H]2CC[C@@H]1O [D, 8β-methyl-estra-1,3,5(10)-triene-3,17β-diol]",RBA Rat Uterus,[2],1.3
same,RBA Rat Prostate,[3],67
same,binding affinity to estrogen receptor of rat prostates compared with estrogen receptor of rat uteri,[3],higher binding affinity
same,expression of the serotonin receptor and transporter,[5],increased expression
"CC[C@@]12CCc3cc(O)ccc3[C@H]1CC[C@@]1(C)[C@H]2CC[C@@H]1O [E, 8β-ethyl-estra-1,3,5(10)-triene-3,17β-diol]",RBA Rat Uterus,[2],<0.3
same,RBA Rat Prostate,[3],7
same,binding affinity to estrogen receptor of rat prostates compared with estrogen receptor of rat uteri,[3],higher binding affinity
same,expression of the serotonin receptor and transporter,[5],increased expression
C[C@]12CC[C@@H]3c4ccc(O)cc4CC[C@H]3[C@@H]1C[C@@H](O)[C@@H]2O [Estriol],hERβ RBA,hERβ [4],21
"O=c1c(-c2ccc(O)cc2)coc2cc(O)cc(O)c12 [Genisteine, reference compound]",Rat prost. ER (RBA),[3],10
